The test system of data set [1] is α-chymotrypsin. The settings on record: α-chymotrypsin 1% by weight, 0.1 M Tris buffer pH 7.7, 37° C., RP-HPLC.
Data set [2] concerns E. coli ML35. The settings on record: 30 min. As to the method:
(§1) Microbicidal activity was measured by first incubating the target organism with the peptide in 10 mM PIPES buffer (pH 7.4), then plating the suspension to quantitate surviving microorganisms.
(§2) Cultures were grown to mid log phase in an appropriate medium, harvested, washed, and resuspended to 1-2×10^7 colony forming units (CFU) per ml. To conserve peptide, the incubation volume usually was 0.05 ml, with the final cell concentration being 1-2×10^6 CFU/ml. Peptide stock solutions, usually made up in […], were diluted in the incubation buffer to a final concentration of 1 μg/ml to 30 μg/ml, and the incubation was initiated by addition of an appropriate volume of the bacterial or fungal stock suspension to the prewarmed (37° C.) peptide-buffer mixture. E. coli and S. aureus were incubated with peptide for 30 min; C. albicans was incubated for 60 min; and C. neoformans was incubated for 4 hr. Following incubation, 50 μl or 100 μl samples were removed and diluted serially, then plated on nutrient-containing agar plates.

Data set [3] has as its system S. aureus 207A. The settings on record: 30 min. As for the experimental part:
as §1, §2

In data set [4] the test system is C. neoformans 271A. The settings on record: 4 hr. As to the method:
as §1, §2

Data set [5] has as its system C. albicans. The settings on record: 60 min, 10 mM PIPES pH 7.4. As for the experimental part: as §1, §2
For data set [6], the system named is Candida albicans 16820. The settings on record: 10, 30, 100 or 300 μg/ml in 10 mM PIPES pH 7.4; FIG. 5. As for the experimental part: (§3) Nutrient-containing agar (or agarose) plates were seeded with E. coli ML35, C. neoformans 271A, S. aureus 207A or C. albicans 16820. […] Following an initial incubation interval of 1 to 4 hr, the well-containing layer was overlayed with enriched (2×normal) solid medium in order to support microbial growth outside the perimeter of inhibition. After overnight incubation at 30° C. to 37° C., the antimicrobial activity was quantitated by measuring the clear zones around each well (zone of inhibition).

For data set [7], the system named is Cryptococcus neoformans 271A. Particulars: 10, 30, 100 or 300 μg/ml in 10 mM PIPES pH 7.4; FIG. 3. As for the experimental part: as §3
For data set [8], the system named is Staphylococcus aureus 207A. The settings on record: 10, 30, 100 or 300 μg/ml in 10 mM PIPES pH 7.4; FIG. 4. As to the method: as §3
Data set [9] has as its system Escherichia coli ML35. The settings on record: 10, 30, 100 or 300 μg/ml in 10 mM PIPES pH 7.4; FIG. 2. As for the experimental part: as §3
Where [10] appears, read: 10 μg/ml peptide, 10 mM PIPES pH 7.4.

Read-outs that look alike come from different tables or passages of the source.

As for “Ile-Leu-Pro-Trp-Lys-Trp-Pro-Trp-Trp-Pro-Trp-Arg-Arg-CONH2 [Indol 1-13]”, the “time within which all of the peptide was digested” value in data set [1] was no more than 6 h. Also, the “reduction of survival (CFU)” value is reported as “greater than three orders of magnitude” in data set [2] (setting [10]); “greater than three orders of magnitude” in data set [3] (setting [10]); “greater than three orders of magnitude” in data set [4] (setting [10]); “about two orders of magnitude” in data set [5] (10 μg/ml peptide); “greater than three orders of magnitude” in [5] (30 μg/ml peptide). Besides, the “additional killing versus 10 μg/ml” value in data set [2] (30 μg/ml peptide), in [3] (30 μg/ml peptide) and in data set [4] (30 μg/ml peptide) was “minimal additional killing” in each case. Also, the “growth inhibition (zone of inhibition)” value in data set [6], in data set [7], in data set [8] and in data set [9] was “inhibited the growth of each microorganism tested in a dose dependent manner” throughout.

For the origin of these results see patent publication US6444645B1, “Crosslink-stabilized indolicidin analogs” (The Regents of the University of California, priority 1998, dated 2002).
